In publication PMC12535377, “Synaptic and intrinsic plasticity mediated by CCK-type signaling coordinates behavioral changes during motivational state shifts” (Cell reports, 2025):
Like-named read-outs stand apart in the source and are kept apart here. Non-standard residues stand in square brackets, D forms with d. Residues, ends and D or L forms follow the SMILES beside them. sY = N[C@@H](Cc1ccc(OS(=O)(=O)O)cc1)C(=O)O

Experiments:
apCCKR2 = biological target: T1, apCCKR2 (Aplysia californica, UniProt A0ABM0ZX06); test: IP1 accumulation assay, apCCKR2 in CHO-K1 cells; format: cell-based; conditions: CHO-K1 cells transfected with receptor and promiscuous Gαq
T1 sequence (A0ABM0ZX06 1-377): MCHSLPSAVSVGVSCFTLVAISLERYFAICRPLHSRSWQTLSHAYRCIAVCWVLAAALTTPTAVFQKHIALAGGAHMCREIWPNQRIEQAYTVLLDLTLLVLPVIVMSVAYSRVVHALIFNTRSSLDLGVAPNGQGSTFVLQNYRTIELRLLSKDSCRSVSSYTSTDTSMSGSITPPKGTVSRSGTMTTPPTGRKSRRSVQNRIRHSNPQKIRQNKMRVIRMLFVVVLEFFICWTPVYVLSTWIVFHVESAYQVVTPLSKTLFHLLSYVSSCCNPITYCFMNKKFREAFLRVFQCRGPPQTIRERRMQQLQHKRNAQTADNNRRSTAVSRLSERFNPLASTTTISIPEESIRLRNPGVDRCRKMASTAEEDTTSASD
Procedure: (§1) We tested receptor activation using the IP1 (inositol monophosphate) accumulation assay that measures IP1 generated in the Gαq pathway (see STAR Methods).
(§2) CHO-K1 cells were cultured in F-12K medium (Gibco, 21127–022) with 10% fetal bovine serum at 37°C in 5% CO2. Before transfection, cells were grown in 35 mm diameter tissue culture-treated dishes to 85% confluence. For transfection, 1.5 μg apCCKR plasmids or control plasmids (in pcDNA3.1(+) vector) and 1.5 μg promiscuous Gαq-family protein (in pcDNA3.1(+) vector) were mixed with 200 μL Opti-MEM (Gibco, 11058021), and 8 μL Turbofect (Thermo Fisher Scientific, R0531). This promiscuous Gαq protein contains substitutions to increase promiscuity,[148] and could bind to most GPCRs, ensuring an IP1 response when a potential ligand binds to its specific GPCR, irrespective of the GPCR’s normal association with any specific Gα proteins. The DNA mixture was incubated at room temperature for 15 min and then added dropwise to the cells in F-12K medium with 10% FBS (no antibiotics), followed by incubation at 37°C in 5% CO2 overnight. The next day, cells were detached using trypsin and reseeded in white 96-well half-area tissue culture-treated plates (Corning, 3688) at a density of 20,000 cells per well in F-12K and 10% FBS, and incubated at 37°C in 5% CO2 overnight. Activation of putative apCCK or related receptor was detected by monitoring IP1 accumulation using IPOne Detection Kit (Cisbio, 62IPAPEB), as previously described.[64],[65],[141],[149],[150]
(§3) Dose-response curves and bar graphs for experimental data were plotted using Prism software (GraphPad version 8). Data are presented as mean ± SEM of at least three independent experiments, except that LogEC50 values reported in the main text are the mean ± standard deviation (SD) from at least three independent experiments. Statistical tests were performed using Prism software. They included Student’s t-test, one-way or two-way ANOVA, as appropriate. […] Electrophysiological recordings were digitized online using AxoScope software version 10.7 (Molecular Devices, LLC, Sunnyvale, CA) and were plotted by CorelDraw version 2018 (Corel Corp., Ottawa, Canada).

Aplysia californica = test: Feeding behavior (food intake) in intact animals after peptide injection; format: in vivo; conditions: for Behavioral effect (food intake), summary grade: Table S1 summary in words; for Food intake (seaweed consumed in a single meal): injection into hemocoel of apCCK solutions (10^-7 M or 10^-6 M) vs ASW, food-deprived animals
From the text: To explore the role of apCCKs as satiety signals in mollusks, we examined their effects on food intake. […] The remaining four forms had no impact (Figure S9). Moreover, [sY6, sY8]-apCCK1 slowed food consumption (Figure 2E), which could stem, in part, from a shift from ingestive to egestive patterns as the meal progressed. [sY6, sY8]-apCCK1 also extended the duration to consume one strip of seaweed compared to controls (Figure 2F), further mimicking natural satiety.
Behavioral experiments were conducted in two batches, each using animals from separate shipments. In the first batch (Figure 2), animals were larger, with an average body weight of 93.3 ± 4.8 g, and were food-deprived for 7 days prior to testing. In the second batch (Figure S9), animals were smaller (average weight: 70.6 ± 4.0 g) and were food-deprived for 5 days to account for their reduced size. In each experiment, two weight-matched animals were housed in separate round net cages (17 cm diameter and 17 cm height) that were placed in a 500 L tank filled with circulating aerated ASW (14°C–16°C). To ensure that the animals were responsive to food, they were first pretested with a small piece of seaweed. After this pretest, in each pair, one animal was injected (into the hemocoel using a syringe needle) with apCCKs freshly dissolved in 1.5 mL ASW, whereas the other was injected with 1.5 mL of ASW. Three minutes later, the feeding session commenced. Animals were hand-fed seaweed (Shirako, Tokyo, Japan) cut in 1 × 10 cm strips, weighing ~0.1 g, increasing 10-fold when hydrated. This hand-feeding approach has been used in prior study of Aplysia feeding behavior.[146],[147] The consumed seaweed amount was converted to hydrated weight and normalized to the animal’s body weight. Each strip of seaweed was delivered to the mouth area with forceps. Feeding was terminated after 1 h or when animals stopped ingesting seaweed for 3 min.

apCCKR1 = biological target: T2, apCCKR1 (Aplysia californica, UniProt A0ABM1AF30); test: IP1 accumulation assay, apCCKR1 in CHO-K1 cells; format: cell-based; conditions: CHO-K1 cells transfected with receptor and promiscuous Gαq
T2 sequence (A0ABM1AF30 1-261): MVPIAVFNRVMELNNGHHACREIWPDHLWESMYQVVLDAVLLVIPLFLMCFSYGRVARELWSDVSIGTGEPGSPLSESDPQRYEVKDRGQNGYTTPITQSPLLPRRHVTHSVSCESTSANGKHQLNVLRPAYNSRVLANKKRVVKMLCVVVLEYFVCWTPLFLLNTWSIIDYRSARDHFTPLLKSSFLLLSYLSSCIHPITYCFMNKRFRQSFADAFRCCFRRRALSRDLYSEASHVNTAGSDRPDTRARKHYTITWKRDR
Procedure: as §1, §2, §3

[1] = log[EC50] with negative sign, mean ± SD, at least three independent experiments, SD, read-out: apCCKR2: log[EC50] (converted)
[2] = log[EC50] with negative sign, mean ± SD, at least three independent experiments, SD, read-out: apCCKR1: log[EC50] (converted)
[3] = average of at least three independent experiments, read-out: apCCKR2: EC50
[4] = average of at least three independent experiments, read-out: apCCKR1: EC50

| Molecule | EC50 (apCCKR2; [1]) [nM] | Behavioral effect (food intake), summary grade (Aplysia californica) | Food intake (seaweed consumed in a single meal) (Aplysia californica) | EC50 (apCCKR1; [2]) [nM] | EC50 (apCCKR2; [3]) [nM] | EC50 (apCCKR1; [4]) [nM] |
| --- | --- | --- | --- | --- | --- | --- |
| CC[C@H](C)[C@H](NC(=O)CNC(=O)[C@H](Cc1ccc(OS(=O)(=O)O)cc1)NC(=O)[C@H](CC(=O)O)NC(=O)CNC(=O)[C@H](Cc1ccc(OS(=O)(=O)O)cc1)NC(=O)[C@@H](N)CO)C(=O)NCC(=O)NCC(=O)NCC(=O)N[C@@H](CCCNC(=N)N)C(=O)N[C@@H](Cc1ccccc1)C(N)=O [[sY2, sY5]-apCCK2] (H-S[sY]GD[sY]GIGGGRF-NH2) | 355 | Weak | significant but weaker effects | 331 | – | – |
| CC[C@H](C)[C@H](NC(=O)CNC(=O)[C@H](Cc1ccc(O)cc1)NC(=O)[C@H](CC(=O)O)NC(=O)CNC(=O)[C@H](Cc1ccc(OS(=O)(=O)O)cc1)NC(=O)[C@@H](N)CO)C(=O)NCC(=O)NCC(=O)NCC(=O)N[C@@H](CCCNC(=N)N)C(=O)N[C@@H](Cc1ccccc1)C(N)=O [[sY2]-apCCK2] (H-S[sY]GDYGIGGGRF-NH2) | 1100 | No effect | did not influence feeding | – | 1400 | > 10000 |
| CC[C@H](C)[C@H](NC(=O)CNC(=O)[C@H](Cc1ccc(OS(=O)(=O)O)cc1)NC(=O)[C@H](CC(=O)O)NC(=O)CNC(=O)[C@H](Cc1ccc(O)cc1)NC(=O)[C@@H](N)CO)C(=O)NCC(=O)NCC(=O)NCC(=O)N[C@@H](CCCNC(=N)N)C(=O)N[C@@H](Cc1ccccc1)C(N)=O [[sY5]-apCCK2] (H-SYGD[sY]GIGGGRF-NH2) | 38.9 | Moderate | significant but weaker effects | 851 | 49 | – |
| H-SYGDYGIGGGRF-NH2 [apCCK2] | – | No effect | did not influence feeding | – | > 10000 | > 10000 |
